The record followed here is publication PMC9785606, “Design and Synthesis of Novel Phenylahistin Derivatives Based on Co-Crystal Structures as Potent Microtubule Inhibitors for Anti-Cancer Therapy” (Marine Drugs, 2022).

Series [1] deals with human lung cancer NCI-H460 cell line. Kind of series: MTT cytotoxicity assay, lung cancer NCI-H460 cell line. The format is cell-based. Particulars: Homo sapiens, NCI-H460, 72 h, mean ± SD. The procedure:
(§1) Human cancer cell lines (lung cancer NCI-H460 cell line, pancreatic cancer BxPC-3 cell line, colon cancer HT-29 cell line) were purchased from American Type Cell Culture Collection (ATCC, Manassas, VA, USA). Cells were maintained in RPMI-1640 medium supplemented with 10% (v/v) heat-inactivated fetal bovine serum, penicillin-streptomycin (100 U/mL-100 […]) at 37 °C in a humidified atmosphere (5% CO2–95% air). All tested derivatives were dissolved in 100% cell culture grade DMSO. Cells (3 × 10^3 per well) were seeded in 96-well plates for 24 h. Then, cells were treated with the tested compounds in six concentrations for 72 h. Cell viability was assessed by MTT assay. The absorbance at 490 nm was measured with a Microplate Reader (Molecular Devices, Silicon Valley, CA, USA). The data were analyzed by Origin 8.5 (OriginLab, Northampton, MA, USA).

Series [2] relates to pancreatic cancer BxPC-3 cell line. Kind of series: MTT cytotoxicity assay, pancreatic cancer BxPC-3 cell line. It counts as cell-based. Particulars: Homo sapiens, 72 h, mean ± SD. The procedure:
as §1

In series [3] the test system is colon cancer HT-29 cell line. Kind of series: MTT cytotoxicity assay, colon cancer HT-29 cell line. Particulars: Homo sapiens, 72 h, mean ± SD. It counts as cell-based. The procedure: as §1
Another series relates to caspase-3. Kind of series: Western blotting of caspase-3 expression. The format is cell-based. The procedure:
Western blot was performed as previously described with antibody caspase-3 (1:1000) (WB0177/WB0176) or GAPDH (1:3000) (WB0197/WB0196, Shanghai Wei-Ao Biotechnology Co., Shanghai, China). Densities of the Western blotting bands were quantified using ImageJ 19.0. (NIH, Bethesda, MD, USA).

Regarding `CCCCn1cnc(/C=c2\[nH]c(=O)/c(=C/c3cccc(Oc4ccc(F)cc4)c3)[nH]c2=O)c1C(C)C` [15j], the melting point lay in the range of 203 to 204 °C. Moreover, half-maximal inhibition in series [1] (IC50) required 2.49 ± 0.28 nM. Further, inhibition in series [2] was half-maximal at 1.13 ± 0.35 nM (IC50). Further, in series [3], the IC50 turned out to be 2.11 ± 0.09 nM. Besides, the “Expression of caspase-3 vs control group and plinabulin group” value in the series with caspase-3 is “significantly higher”.
